Legend:
JCPyV [1] = system: JCPyV; design: method as in PMID 26600871, PMID 21402853; settings: relative to cidofovir; cited from earlier work
SVG-A cells = experiment: Viral ToxGlo toxicity assay in SVG-A cells; format: cell-based, human
Method: (§1) SVG-A cells were plated at 5,000 cells per well, and NHAs were plated at 10,000 per well in a Corning 96-well tissue culture-treated plate. The following day, the cells were treated with a twofold dilution series of either quercetin, myricetin, or fisetin, ranging from 20 to 0.15625 µM, in phenol-free media. SVG-A cells were incubated with drug for 72 h in the incubator at 37°C with 5% CO2. NHA cells were incubated with drug for 120 h at 37°C with 5% CO2 to match the exposure times for infection. After incubation, a luciferase-based Viral ToxGlo Assay (Promega) was added to each well according to the manufacturer’s protocol. Viral ToxGlo measures the amount of ATP activity present through a luminescent signal. The cells were incubated with Viral ToxGlo lytic reagent for 10 min at 37°C with 5% CO2. Lysed cell suspension was then transferred to an opaque plate, and luciferase activity was read on the Glomax Multi-detection System (Promega, 0.5 s integration time) and normalized to a vehicle control.

NHA cells = experiment: Viral ToxGlo toxicity assay in NHA cells; format: cell-based, human
Method: as §1

JCPyV [2] = experiment: JCPyV infection assay in SVG-A cells (VP1 indirect immunofluorescence); format: cell-based; settings: JC polyomavirus, 2 h pretreatment, MOI 10, drug maintained 72 h, normalized to DMSO
Method: (§2) SVG-A cells were plated at 5,000 cells per well, and NHAs were plated at 10,000 per well. The following day, the cells were treated with the above-described dose curve of either quercetin, fisetin, or myricetin, ranging from 10 to 0.15625 µM. A DMSO (vehicle) control that was volume matched to the highest volume of each flavonol was included. The plates were pretreated with drug for 2 h at 37°C with 5% CO2. Next, the cells were incubated in 1× MEM with purified JCPyV (MOI of 10) in the continued presence of either quercetin, myricetin, fisetin, or a DMSO vehicle control matched to the highest concentration of each flavonol. Plates were incubated for 2 h at 37°C with 5% CO2 and rocked every 15 min to ensure homogenous distribution of virus in each well. Virus-containing media were then aspirated and replaced with either quercetin, myricetin, fisetin, or a volume-matched DMSO control in complete media. SVG-A cells were incubated for 72 h in the incubator at 37°C with 5% CO2. Astrocytes were incubated for 120 h at 37°C with 5% CO2. Plates were fixed in 100% ice-cold methanol and quantified using indirect immunofluorescence staining for the late viral protein VP1.
(§3) To quantify the number of infected cells, SVG-A and NHA cells were fixed with ice-cold 100% methanol at −20°C for at least 15 min to permeabilize cells. The cells were rehydrated with 1× phosphate-buffered saline (PBS) for 15 min and rocked at room temperature. […] The cells were imaged on a Ti2-E Inverted Fluorescence Microscope (Nikon) using the 20× objective. For each plate, a random subset of 10 fields was chosen to image per well, and three wells were analyzed per condition. Images were analyzed using Elements High Content Imaging software (Nikon) to count total cells versus VP1+ cells.
(§4) A linear regression between successive points was used to calculate the half maximal inhibitory values (IC50) from the dose curves of each drug. […] Significance was calculated using Student’s two-tailed t-test in GraphPad Prism. […]

JCPyV [3] = experiment: JCPyV infection assay in NHA cells (VP1 indirect immunofluorescence); format: cell-based; settings: JC polyomavirus, 2 h pretreatment, MOI 10, drug maintained 120 h, normalized to DMSO
Method: as §2, §3, §4

JCPyV [4] = experiment: Infection time course in SVG-A cells; format: cell-based, JC polyomavirus; settings: 10 µM, added at -2, 0, 2 or 24 h relative to infection, VP1+ at 72 h post-infection
Method: (§5) SVG-A cells were plated at 5,000 cells per well, and NHAs were plated at 10,000 per well in a Corning 96-well tissue culture-treated plate. The following day, the cells were treated at the following four time points: 2 h before infection (−2 h; pretreatment), 0 h (co-treatment at the time of infection), 2 hs after infection (post treatment), or 24 h after infection (post-treatment). At the 2-h pretreatment time point, quercetin, myricetin, fisetin, or a volume-matched DMSO control was added in complete media. For all other time points, complete media were administered as a mock treatment. The plates were incubated for 2 h at 37°C and 5% CO2. At the 0-h time point, purified JCPyV (MOI of 10) in unsupplemented media was added to each of the time points, either alone or in the presence of drug, as appropriate for each treatment condition. In the −2 h and 0 h treated wells, quercetin, myricetin, fisetin, or a volume-matched DMSO control was added as co-treatment. All plates were infected with purified JCPyV at the same time, for 2 h at 37°C and 5% CO2. At the 2-h time point, the virus was aspirated and flavonols in complete media were added to the −2, 0, and 2 h time points. Complete media without drug or vehicle control was administered to the 24-h time point. Twenty-four hours after infection, flavonols were added to the 24-h time point, in complete media. SVG-A cells were incubated at 37°C and 5% CO2 for 72 h after infection, and NHA cells were incubated at 37°C and 5% CO2 for 120 h after infection. Plates were then stained and infection was quantified via indirect immunofluorescence.
as §3, with “cells.” for “cells. The cells were rehydrated with 1× phosphate-buffered saline (PBS) for 15 min and rocked at room temperature.”

JCPyV [5] = experiment: Infection time course in NHA cells; format: cell-based, JC polyomavirus; settings: added at -2, 0, 2 or 24 h relative to infection, VP1+ at 120 h post-infection
Method: as §5
as §3, with “cells.” for “cells. The cells were rehydrated with 1× phosphate-buffered saline (PBS) for 15 min and rocked at room temperature.”

JCPyV [6] = experiment: Viral spread assay in SVG-A cells; format: cell-based, JC polyomavirus; settings: 10 µM added 24 h post-infection, VP1+ at 3, 6 and 9 days post-infection, vs DMSO
Method: (§6) For the viral spread assay, the cells were plated at a density of 5,000 cells per well for SVG-A in complete MEM, or 10,000 cells per well for NHA in complete AM, and incubated overnight at 37°C with 5% CO2. The next day, the cells were infected with purified JCPyV (MOI of 10) for 2 h to establish an infection without the presence of drugs. After infection, JCPyV media were aspirated and plates were incubated with complete media as required for each cell type. One day post-infection, the cells were incubated with the highest nontoxic dose (for SVG-A: 10 µM quercetin, 10 µM myricetin, 10 µM fisetin; for NHA: 5 µM quercetin, 10 µM myricetin, 5 µM fisetin) or a volume-matched DMSO control. Plates were incubated at 37°C with 5% CO2 and infection was measured by indirect immunofluorescence quantification at 3, 6, and 9 days post-infection in SVG-As or 5, 10, and 15 days post-infection for NHAs. At every time point, the cells were either fixed in ice-cold methanol or were supplemented with an additional 50 µL of cell media that consisted of the matched concentration of quercetin, fisetin, myricetin, or DMSO vehicle control. Cell counts were obtained by counting the total number of cells in 10 random fields per well (3 wells total per replicate) on the Ti2-E Inverted Fluorescent Microscope (Nikon).
as §3, with “rocked at room temperature. Subsequent permeabilization was conducted with incubation in 1% Triton-X (USB) for 10 min with rocking” for “rocked”

JCPyV [7] = experiment: Viral spread assay in NHA cells; format: cell-based, JC polyomavirus; settings: VP1+ at 5, 10 and 15 days post-infection, vs DMSO
Method: as §6
as §3, with “rocked at room temperature. Subsequent permeabilization was conducted with incubation in 1% Triton-X (USB) for 10 min with rocking” for “rocked”

[8] = design: method as in PMID 14980703, PMID 28528183; settings: U251 cells; cited from earlier work
[9] = design: method as in PMID 29317180; settings: amplification of hippocampal long-term potentiation; cited from earlier work

| SMILES | concentration reducing JCPyV DNA copy number, fold smaller than cidofovir (JCPyV [1]) | highest nontoxic dose (SVG-A cells; SVG-A cells) | highest nontoxic dose (NHA cells; NHA cells) | IC50 (JCPyV [2]) | IC50 (JCPyV [3]) | inhibition of JCPyV infection by time of addition (JCPyV [4]) | inhibition of JCPyV infection by time of addition (JCPyV [5]; 5 µM) | inhibition of viral spread in established infection (JCPyV [6]) | inhibition of viral spread in established infection (JCPyV [7]; 5 µM added 24 h post-infection) | crossing of the BBB in in vitro models [8] | inhibition of JCPyV infection by time of addition (JCPyV [5]; 10 µM) | inhibition of viral spread in established infection (JCPyV [7]; 10 µM added 24 h post-infection) | highest nontoxic dose (SVG-A cells; human, 72 h) | highest nontoxic dose (NHA cells; human, 120 h) | crossing of the BBB in vivo [9] |
| --- | --- | --- | --- | --- | --- | --- | --- | --- | --- | --- | --- | --- | --- | --- | --- |
| CCCCCCCCCCCCCCCCOCCCOP(=O)(O)CO[C@H](CO)Cn1ccc(N)nc1=O [Brincidofovir] | 100 × |  |  |  |  |  |  |  |  |  |  |  |  |  |  |
| O=c1c(O)c(-c2ccc(O)c(O)c2)oc2cc(O)cc(O)c12 [quercetin] |  | 10 µM | 5 µM | 6.04 µM | 2.51 µM | inhibited infection at all time points up to and including 24 h post-infection | maintained their ability to inhibit infection even when administered at 24 h post-infection | inhibit viral spread in SVG-A cells at 3, 6, and 9 days post-infection | significantly reduce JCPyV infection at all time points | up to 65% |  |  |  |  |  |
| O=c1c(O)c(-c2cc(O)c(O)c(O)c2)oc2cc(O)cc(O)c12 [myricetin] |  | 10 µM | 10 µM | 8.07 µM | 4.47 µM | effective only when given 2 h before infection or at the time of infection |  | no significant reduction in viral spread compared to DMSO control |  |  | lost by 2 h post-infection | without effect |  |  |  |
| O=c1c(O)c(-c2ccc(O)c(O)c2)oc2cc(O)ccc12 [fisetin] |  |  |  | 5.76 µM | 3.72 µM | inhibited infection at all time points up to and including 24 h post-infection | maintained their ability to inhibit infection even when administered at 24 h post-infection | inhibit viral spread in SVG-A cells at 3, 6, and 9 days post-infection | significantly reduce JCPyV infection at all time points |  |  |  | 10 µM | 5 µM | found to cross the BBB in vivo |
